According to US11279687B2, “Compounds and compositions for the inhibition of NAMPT” (Valo Health, Inc., priority 2010, dated 2022):
Read-outs that look alike come from different tables or passages of the source.

Assays:
NAMPT = NAMPT (Homo sapiens (Human), UniProt P43490); experiment: NAMPT biochemical inhibition assay (NMN quantified by mass spectrometry); conditions: NAMPT biochemical inhibition; read-out: Biochem IC50
A2780 cells = experiment: In-vitro cell proliferation assay (SRB), A2780 cells; type: cell-based; conditions: read-out: A2780 IC50;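 also: viable cell number read as SRB absorbance, background from media-only wells subtracted, IC50 interpolated from percent inhibition at two bracketing compound concentrations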
[1] = Homo sapiens, A2780, 72 h, A2780 cells, 72 hours, SRB

Sequence of NAMPT (P43490 whole entry): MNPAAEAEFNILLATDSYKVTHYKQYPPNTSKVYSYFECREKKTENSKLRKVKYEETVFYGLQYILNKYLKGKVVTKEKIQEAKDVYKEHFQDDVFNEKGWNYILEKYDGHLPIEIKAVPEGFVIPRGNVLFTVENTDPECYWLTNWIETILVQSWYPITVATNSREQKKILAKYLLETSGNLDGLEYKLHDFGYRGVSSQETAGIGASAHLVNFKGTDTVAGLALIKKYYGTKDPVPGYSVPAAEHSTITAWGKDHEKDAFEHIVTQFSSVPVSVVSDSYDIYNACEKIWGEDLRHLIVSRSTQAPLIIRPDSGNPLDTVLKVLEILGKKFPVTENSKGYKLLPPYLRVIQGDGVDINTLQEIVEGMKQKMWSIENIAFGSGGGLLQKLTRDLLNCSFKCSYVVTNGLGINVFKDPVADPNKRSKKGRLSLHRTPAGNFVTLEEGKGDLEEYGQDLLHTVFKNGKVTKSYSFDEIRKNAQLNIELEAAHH

Structure (SMILES) | IC50 (NAMPT) | IC50 (A2780 cells; [1]) | IC50 (A2780 cells; Homo sapiens, A2780, 72 h) | IC50 (A2780 cells; A2780 cells, 72 hours, SRB)
CCN(C1CCCCC1)S(=O)(=O)c1ccc(NC(=O)NCc2cccnc2)cc1 [3-{4-[cyclohexyl(ethyl)sulfamoyl]phenyl}-1-(pyridin-3-ylmethyl)urea] | 5 nM | 123 nM |  | 
O=C(NCc1cccnc1)Nc1ccc(S(=O)(=O)c2cc(C(F)(F)F)ccc2Cl)cc1 [3-(4-{[2-chloro-5-(trifluoromethyl)benzene]sulfonyl}phenyl)-1-(pyridin-3-ylmethyl)urea] | 5 nM | 339 nM |  | 
CC1CCN(S(=O)(=O)c2ccc(NC(=O)NCc3cccnc3)cc2)CC(C)(C)C1 (stereo not shown) [1-(pyridin-3-ylmethyl)-3-[4-(3,3,5-trimethylazepane-1-sulfonyl)phenyl]urea] | 2 nM | 9.2 nM |  | 
Cc1ccc(S(=O)(=O)c2ccc(NC(=O)NCc3cccnc3)cc2)c(C)c1 [3-{4-[(2,4-dimethylbenzene)sulfonyl]phenyl}-1-(pyridin-3-ylmethyl)urea] | 18 nM | 967 nM |  | 
COc1ccc(NS(=O)(=O)c2ccc(NC(=O)NCc3cccnc3)cc2)cc1OC [3-{4-[(3,4-dimethoxyphenyl)sulfamoyl]phenyl]-1-(pyridin-3-ylmethyl)urea] | 5 nM | 116 nM |  | 
O=C(NCc1cccnc1)Nc1ccc(S(=O)(=O)c2ccc(-c3ccccc3)cc2)cc1 [1-{4-[(4-phenylbenzene)sulfonyl]phenyl}-3-(pyridin-3-ylmethyl)urea] | 5.8 nM | 100 to 1000 nM |  | 
O=C(Nc1ccc(S(=O)(=O)c2ccccc2)cc1)Nc1ccc2ncccc2c1 [3-[4-(benzenesulfonyl)phenyl]-1-(quinolin-6-yl)urea] | 90 nM | 15900 nM |  | 
CCOc1ccccc1NS(=O)(=O)c1ccc(NC(=O)NCc2cccnc2)cc1 [3-{4-[(2-ethoxyphenyl)sulfamoyl]phenyl}-1-(pyridin-3-ylmethyl)urea] | 3 nM | 32 nM |  | 
CC[C@H]1CCCCN1S(=O)(=O)c1ccc(NC(=O)NCc2cccnc2)cc1 [3-{4-[(2S)-2-ethylpiperidine-1-sulfonyl]phenyl}-1-(pyridin-3-ylmethyl)urea] | 4 nM | 18 nM |  | 
O=C(NCc1cccnc1)Nc1ccc(S(=O)(=O)N2CCC(N3CCCCCC3)CC2)cc1 [1-{4-[4-(azepan-1-yl)piperidine-1-sulfonyl]phenyl}-3-(pyridin-3-ylmethyl)urea] | 5 nM | 6 nM |  | 
COc1ccc(OC)c(NS(=O)(=O)c2ccc(NC(=O)NCc3cccnc3)cc2)c1 [3-{4-[(2,5-dimethoxyphenyl)sulfamoyl]phenyl}-1-(pyridin-3-ylmethyl)urea] | 1.2 nM | 4 nM |  | 
O=C(NCc1cccnc1)Nc1ccc(S(=O)(=O)N2CCC(N3C(=O)Cc4ccccc43)CC2)cc1 [1-{4-[4-(2-oxo-2,3-dihydro-1H-indol-1-yl)piperidine-1-sulfonyl]phenyl}-3-(pyridin-3-ylmethyl)urea] | 3 nM |  | 58 nM | 
NC(=O)c1ccc(CNC(=O)Nc2ccc(S(=O)(=O)N3CCCCC3)cc2)cn1 [5-[({[4-(piperidine-1-sulfonyl)phenyl]carbamoyl}amino)methyl]pyridine-2-carboxamide] | > 10000 nM | 27500 nM |  | 
O=C(NCc1cccnc1)Nc1ccc(S(=O)(=O)N2CCC(F)(F)CC2)cc1 [1-[4-(4,4-difluoropiperidine-1-sulfonyl)phenyl]-3-(pyridin-3-ylmethyl)urea] | 25 nM | 299 nM |  | 
O=C(NCc1cccnc1)Nc1ccc(S(=O)(=O)N2CCCC(C(F)(F)F)C2)cc1 (stereo not shown) [1-(pyridin-3-ylmethyl)-3-{4-[3-(trifluoromethyl)piperidine-1-sulfonyl]phenyl}urea] | 3 nM | 26 nM |  | 
Cc1ccc(NS(=O)(=O)c2ccc(NC(=O)NCc3cccnc3)cc2)cc1C(F)(F)F [3-(4-{[4-methyl-3-(trifluoromethyl)phenyl]sulfamoyl[phenyl)-1-(pyridin-3-ylmethyl)urea] | 2 nM |  |  | 179 nM
O=C(NCc1cccnc1)Nc1ccc(S(=O)(=O)N2CCC(C(=O)N3CCOCC3)CC2)cc1 [3-(4-{4-[(morpholin-4-yl)carbonyl]piperidine-1-sulfonyl}phenyl)-1-(pyridin-3-ylmethyl)urea] | 8 nM | 40 nM |  | 
Cc1ccc(Cl)cc1N1CCN(S(=O)(=O)c2ccc(NC(=O)NCc3cccnc3)cc2)CC1 [3-{4-[4-(5-chloro-2-methylphenyl)piperazine-1-sulfonyl]phenyl}-1-(pyridin-3-ylmethyl)urea] | 2 nM | 162 nM |  | 
O=C(NCc1cccnc1)Nc1ccc(S(=O)(=O)c2cccc3c2oc2ccccc23)cc1 [1-(4-{8-oxatricyclo[7.4.0.0^2,^7]trideca-1(9),2(7),3,5,10,12-hexaene-6-sulfonyl}phenyl)-3-(pyridin-3-ylmethyl)urea] | 2 nM |  |  | 3 nM
O=C(NCc1cccnc1)Nc1ccc(S(=O)(=O)Nc2ccccc2N2CCCCC2)cc1 [1-(4-{[2-(piperidin-1-yl)phenyl]sulfamoyl}phenyl)-3-(pyridin-3-ylmethyl)urea] | 4 nM | 18 nM |  | 
COCCOc1ccc(CNC(=O)Nc2ccc(S(=O)(=O)c3ccccc3)cc2)cn1 [3-[4-(benzenesulfonyl)phenyl]-1-{[6-(2-methoxyethoxy)pyridin-3-yl]methyl}urea] | 2120 nM | > 10000 nM |  | 
O=C(NCc1cccnc1)Nc1ccc(S(=O)(=O)N2CC(F)(F)C2)cc1 [3-[4-(3,3-difluoroazetidine-1-sulfonyl)phenyl]-1-(pyridin-3-ylmethyl)urea] | 59 nM | 7860 nM |  | 
Cc1ccc(S(=O)(=O)c2ccc(NC(=O)NCc3cccnc3)cc2)cc1Cl [3-{4-[(3-chloro-4-methylbenzene)sulfonyl]phenyl}-1-(pyridin-3-ylmethyl)urea] | 0.9 nM | 100 to 1000 nM |  | 
O=C(NCc1cccnc1)Nc1ccc(S(=O)(=O)c2cccc(C(=O)NC3CCCC3)c2)cc1 [N-cyclopentyl-3-[(4-{[(pyridin-3-ylmethyl)carbamoyl]amino[benzene)sulfonyl]benzamide] | 9.6 nM |  |  | 100 to 1000 nM
Cc1ccc(NS(=O)(=O)c2ccc(NC(=O)NCc3cccnc3)cc2)c(Cl)c1 [3-{4-[(2-chloro-4-methylphenyl)sulfamoyl]phenyl}-1-(pyridin-3-ylmethyl)urea] | 1 nM | 32 nM |  | 
CCOc1ccc(S(=O)(=O)c2ccc(NC(=O)NCc3cccnc3)cc2)cc1F [3-{4-[(4-ethoxy-3-fluorobenzene)sulfonyl]phenyl}-1-(pyridin-3-ylmethyl)urea] | 1.2 nM | 21.7 nM |  | 
O=C(NCc1cccnc1)Nc1ccc(S(=O)(=O)c2cccc(OCC3CC3)c2)cc1 [1-(4-{[3-(cyclopropylmethoxy)benzene]sulfonyl}phenyl)-3-(pyridin-3-ylmethyl)urea] | 8.6 nM | 100 to 1000 nM |  | 
CCN(CC)CCN1CCN(S(=O)(=O)c2ccc(NC(=O)NCc3cccnc3)cc2)CC1 [3-(4-{4-[2-(diethylamino)ethyl]piperazine-1-sulfonyl}phenyl)-1-(pyridin-3-ylmethyl)urea] | 4 nM | 23 nM |  | 
O=C(NCc1cccnc1)Nc1ccc(S(=O)(=O)c2ccc3ncccc3c2)cc1 [3-(pyridin-3-ylmethyl)-1-[4-(quinoline-6-sulfonyl)phenyl]urea] | 2.7 nM | 44.1 nM |  | 
